According to PMC4441817 (Bioorganic & medicinal chemistry letters, 2012):

Key:
[1] = test system: GGTase II; conditions: cited from earlier work
[2] = test system: human myeloma RPMI-8226 cell line; conditions: RPMI-8226 cells, 48 hr incubation
[3] = test system: human myeloma RPMI-8226 cell line; test: cells; conditions: RPMI-8226, 48 h, read-out: MTT IC50
[4] = test system: protein farnesylation or geranylgeranylation; test: Cellular assays of protein farnesylation or geranylgeranylation; type: cell-based; conditions: data not shown
[5] = target: T1, geranylgeranyl transferase II (GGTase II) (Homo sapiens, UniProt P53611+Q92696); type: biochemical; conditions: recombinant enzyme
T1 sequence (Q92696 1-567): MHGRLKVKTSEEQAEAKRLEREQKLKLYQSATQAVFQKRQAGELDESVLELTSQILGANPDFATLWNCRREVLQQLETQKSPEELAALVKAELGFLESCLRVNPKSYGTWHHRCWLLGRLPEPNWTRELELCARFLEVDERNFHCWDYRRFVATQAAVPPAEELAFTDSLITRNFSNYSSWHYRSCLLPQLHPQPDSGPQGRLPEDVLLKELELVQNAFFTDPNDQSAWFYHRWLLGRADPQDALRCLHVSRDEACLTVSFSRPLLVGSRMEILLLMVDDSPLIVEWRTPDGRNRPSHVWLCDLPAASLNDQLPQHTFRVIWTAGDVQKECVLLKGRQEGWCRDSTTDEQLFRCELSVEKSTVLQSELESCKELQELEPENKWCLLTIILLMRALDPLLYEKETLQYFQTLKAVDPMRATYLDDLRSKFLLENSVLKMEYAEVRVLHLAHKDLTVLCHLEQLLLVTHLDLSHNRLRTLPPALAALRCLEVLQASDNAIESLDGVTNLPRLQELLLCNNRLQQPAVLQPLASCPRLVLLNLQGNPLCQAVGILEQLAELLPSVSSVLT
T1 sequence (P53611 1-331): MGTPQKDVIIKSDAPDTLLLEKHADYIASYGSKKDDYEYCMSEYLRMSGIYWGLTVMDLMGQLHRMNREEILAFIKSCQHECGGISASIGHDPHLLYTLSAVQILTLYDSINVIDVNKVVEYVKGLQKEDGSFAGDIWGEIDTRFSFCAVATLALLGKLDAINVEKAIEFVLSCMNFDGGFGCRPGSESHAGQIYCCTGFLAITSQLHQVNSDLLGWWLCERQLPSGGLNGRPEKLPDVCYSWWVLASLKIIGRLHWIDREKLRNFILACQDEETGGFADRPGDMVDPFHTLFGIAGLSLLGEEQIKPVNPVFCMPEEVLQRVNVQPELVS

[6] = cited from earlier work

Structure (SMILES) | IC50 [3] | activity as a GGTase II inhibitor (in words) [5] | also measured
O=C(O)C(O)(Cc1cnc2ccccn12)P(=O)(O)O (single isomer, unassigned; (+)) [(+)-3-IPEHPC] | – | – | potency relative to 3-PEHPC [1]: more potent than 3-PEHPC; type of inhibition with respect to GGPP [1]: mixed-type inhibitor; type of inhibition with respect to Rab [1]: uncompetitive inhibitor
O=P([O-])([O-])C(Cc1cn(Cc2ccc3ccccc3c2)nn1)P(=O)([O-])[O-].[Na+].[Na+].[Na+].[Na+] [Compound 11b] | 200 µM | – | cytotoxic potency in the MTT assay (in words) [2]: most potent; effect on protein farnesylation or geranylgeranylation [4]: does not affect protein farnesylation or geranylgeranylation
CC(C)=CCC/C(C)=C/CCC(C)=CCn1cc(CC(P(=O)([O-])[O-])P(=O)([O-])[O-])nn1.[Na+].[Na+].[Na+].[Na+] [Compound 11d] | 900 µM | modest activity | –
O=P(O)(O)C(Cc1cn(Cc2ccccc2)nn1)P(=O)(O)O [Compound 11a] | > 1000 µM | – | –
CC(C)=CCC/C(C)=C/CC/C(C)=C/CCC(C)=CCn1cc(CC(P(=O)([O-])[O-])P(=O)([O-])[O-])nn1.[Na+].[Na+].[Na+].[Na+] [Compound 11e] | 1000 µM | most active compound | –
CC(C)=CCCC(C)=CCn1cc(CC(P(=O)([O-])[O-])P(=O)([O-])[O-])nn1.[Na+].[Na+].[Na+].[Na+] [Compound 11c] | > 1000 µM | no activity | –
O=C(O)C(O)(Cc1cccnc1)P(=O)(O)O (stereo not drawn) [Compound 3-PEHPC] | – | – | concentrations required to observe cellular effects [6]: millimolar concentrations are required; selectivity for GGTase II (in words) [1]: good selectivity for GGTase II
